Common to all, as to type: cell-based
Assay [1] concerns the target Glutamate NMDA receptor; Grin1/Grin2a (Rattus norvegicus, UniProt P35439+Q00959). Description: Antagonist activity at rat brain GluN1/GluN2A receptor expressed in Xenopus laevis oocytes assessed as inhibition of glutamate/glycine-induced channel current by two electrode voltage clamp method.
Assay [2] concerns the target Glutamate NMDA receptor; Grin1/Grin2a (Rattus norvegicus) (UniProt P35439+Q00959). The assay is described as follows: Antagonist activity at rat brain GluN1/GluN2A receptor expressed in Xenopus laevis oocytes assessed as inhibition of glutamate/glycine-induced channel current at 1 uM by two electrode voltage clamp method. (Two-electrode voltage clamp holds a large cell at a set potential and records current.)

Assay [3] deals with Glutamate NMDA receptor; Grin1/Grin2b (Rattus norvegicus) (UniProt P35439+Q00960). The assay is described as follows: Antagonist activity at rat brain GluN1/GluN2B receptor expressed in Xenopus laevis oocytes assessed as inhibition of glutamate/glycine-induced channel current at 1 uM by two electrode voltage clamp method.
In assay [4] the target is Glutamate NMDA receptor; Grin1/Grin2b (Rattus norvegicus, UniProt P35439+Q00960). Description: Antagonist activity at rat brain GluN1/GluN2B receptor expressed in Xenopus laevis oocytes assessed as inhibition of glutamate/glycine-induced channel current by two electrode voltage clamp method.

Counter-ions that a name gives are not always drawn. Calls of active or inactive are those of the source. The rule behind the calls is not given here.

Usually IC50 stands for the concentration at which inhibition is half-maximal.

On to `CC12CC3CC(C)(C1)CC(N)(C3)C2` [MEMANTINE HYDROCHLORIDE], for which the IC50 in assay [1] is 1.38 µM. Turning to `CC12CC3CC(C)(C1)CC(NCCCCNCc1ccccc1)(C3)C2`, the inhibition result in assay [2] and in assay [3] was “Active” throughout.

As to `CC12CC3CC(C)(C1)CC(NCCCCNCCCCNC(=N)N)(C3)C2`, the IC50 in assay [1] was 0.379 µM; in assay [4], 0.433 µM.

Consider `CC12CC3CC(C)(C1)CC(NCCCCN)(C3)C2`, for which the inhibition result in assay [2] and in assay [3] was “Active” in each case. Consider `CC12CC3CC(C)(C1)CC(NCCCCN=C(N)N)(C3)C2`, for which the inhibition entry in assay [2] and in assay [3] was “Active” throughout. Consider `CC12CC3CC(C)(C1)CC(NCCCCCCCCCN)(C3)C2`, for which the inhibition entry in assay [2] and in assay [3] was “Active” each time. As for `CC12CC3CC(C)(C1)CC(NCCCCNCCCCN)(C3)C2`, the IC50 in assay [1] is 0.656 µM; in assay [4] it was 0.587 µM.
